Consider 3 compounds from PMC11435438, “Cyclin-Dependent Kinase 8 Represents a Positive Regulator of Cytomegalovirus Replication and a Novel Host Target for Antiviral Strategies” (Pharmaceutics, 2024).

Where two headings read alike, the source gives them in different places.

Data set [1] concerns HCMV AD169-GFP. The data set can be described thus: microbe, parasite or virus in culture. The class given is cell-based, human cytomegalovirus. As to conditions: ratio CC50/EC50; HCMV AD169-GFP, HFFs. As for the experimental part:
(i.e., 1 × TCID25/7d). Immediately after virus adsorption, the cells were treated with antiviral compounds or solvent control (DMSO). Infections were performed in biological quadruplicates, or as indicated for individual experiments. The cells were fixed by the addition of 150 µL 10% formalin/well 7 d p.i. (Merlin-GFP 14 d p.i.), and washed with PBS. For GFP or YFP quantitation, the Victor X4 microplate reader (PerkinElmer, Waltham, MA, USA) was primarily used, or as a very sensitive alternative, the ImageXpress® Pico device (Molecular Devices LLC, San Jose, CA, USA). Mean EC50 values of antiviral efficacy were calculated on the basis of three experimental replicates or as indicated (measurement of fluorescence values in quadruplicate), and percentage values were provided relative to the solvent control (DMSO).

Data set [2] deals with HCMV AD169-GFP. Set-up: method as in PMID 35269635. The settings on record: GFP-based replication assay in HFFs, mean ± SD; cited from earlier work.
Data set [3] deals with mock-infected HFFs. As to conditions: cited from earlier work.
Data set [4] has as its system HCMV core NEC pUL50-pUL53. Briefly: Nuclear rim localization of viral core NEC pUL50-pUL53 (IF, confocal imaging). The class given is cell-based, human cytomegalovirus. The settings on record: 0.5 µM MBV, 5 nM CCT, 2 nM MSC, 0.7 nM BI; HFFs, AD169-UL50-HA MOI 0.05, 7 d p.i. The method, then: In order to investigate viral protein expression and localization, 3 × 10^5 HFFs were seeded in 6-well plates one day prior to infection with HCMV AD169-UL50-HA (MOI 0.05). After 90 min of viral absorption, cells were treated with 0.5 µM MBV, 5 nM CCT, 2 nM MSC or 0.7 nM BI-1347. The infected cells were fixed at 7 d p.i., before indirect immunofluorescence staining was performed for viral IE1, pUL50, and pUL53, and signals were evaluated by confocal laser-scanning microscopy (Leica Microsystems, TCS SP5, Wetzlar, Germany). The counterstaining of the nuclei was performed with DAPI.

The mark [5] stands for this setting: mock-infected HFFs, Neutral Red assay, mean ± SD.

As a reminder, the EC50 is the concentration that produces a half-maximal response. As for `Cc1c(Br)c(Br)c2c3c1nc(N1CCNCC1)n3CCC2` [SEL120], the “SI (selectivity index)” value in data set [1] is given as 75. For the same compound, the EC50 in data set [2] is 79 ± 1 nM. Moreover, the CC50 in data set [3] (setting [5]) is 5900 ± 3850 nM.

With `CC(C)c1cnn2c(NCc3ccccc3-n3cccn3)nc(OC3CCCNC3)nc12` (stereo not drawn) [LDC4297], the EC50 in data set [2] was 9 ± 2 nM. Further, the CC50 in data set [3] was above 10000 nM.

In the case of `CC(C)Nc1nc2cc(Cl)c(Cl)cc2n1[C@H]1O[C@@H](CO)[C@H](O)[C@@H]1O` [MBV, maribavir], the “SI (selectivity index)” value in data set [1] is given as above 250. In addition, the EC50 in data set [2] is 350 ± 420 nM. In addition, the CC50 in data set [3] (setting [5]) is above 100000 nM. Besides, in data set [4], the “nuclear rim localization of core NEC pUL50-pUL53” value is listed as “clear disruption of the smooth rim”.
